“Also recorded” adds a separate entry of the source. Read-outs that look alike come from different tables or passages of the source.
Assays:
[1] = tested on: 15-PGDH-luciferase fusion reporter in V9m, LS174T and V503 cell lines; test: 15-PGDH-luciferase fusion gene reporter induction in three colon cancer cell lines (stated jointly); type: cell-based
[2] = biological target: recombinant 15-PGDH protein (Homo sapiens (Human), UniProt P15428); test: Inhibition of enzymatic activity of recombinant 15-PGDH in vitro; type: biochemical;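 also: activity of recombinant human 15-PGDH assayed in vitro using PGE2 as the substrate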
Sequence of recombinant 15-PGDH protein (P15428 whole entry, the tested form may be a part): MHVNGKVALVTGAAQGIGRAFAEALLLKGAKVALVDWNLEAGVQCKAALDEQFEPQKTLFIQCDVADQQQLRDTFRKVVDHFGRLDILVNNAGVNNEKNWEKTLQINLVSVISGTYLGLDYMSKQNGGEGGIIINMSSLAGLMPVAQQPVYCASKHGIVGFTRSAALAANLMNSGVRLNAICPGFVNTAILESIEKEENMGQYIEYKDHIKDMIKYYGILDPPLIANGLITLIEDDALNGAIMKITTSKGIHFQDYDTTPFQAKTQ

[3] = tested on: LS174T reporter cell line expressing a 15-PGDH luciferase fusion construct; test: 15-PGDH-luciferase fusion gene reporter induction, LS174T cell line; type: cell-based; conditions: Homo sapiens
Source text: (§1) These cell lines are Vaco-9m (V9m), LS174T, Vaco503 (V503). […] Value of 1.0 on the Y-axis is the basal level of reporter activity in cells treated with drug free DMSO vehicle.
(§2) This Example provides data on a group of structural analogues of SW033291. Data provided includes level of induction of a 15-PGDH-luciferase fusion gene reporter, recorded as % increased luciferase activity over basal level, in three colon cancer cell lines, V9m, V503, and LS174T, engineered to contain the reporter, and treated with either 2.5 uM or 7.5 uM compound (i.e., Values are recorded on a scale where 100 indicates of doubling of luciferase activity over baseline level).
(§3) FIGS. 27(A-C) show graphs that show the level of compound's activity in inducing the 15-PGDH-luciferase fusion reporter in three different test cell line backgrounds, V9m, LS174T, and V503. Each compound was tested at two concentrations, 2.5 uM, and 7.5 uM. Y-axis is luciferase activity.
(§4) Data provided include level of induction of a 15-PGDH-luciferase fusion gene reporter, recorded as % induction of luciferase activity over basal level, in three colon cancer cell lines, V9m, V503, and LS174T, engineered to contain the reporter, and treated with either 2.5 uM or 7.5 uM compound. […] Additionally, for selected compounds is recorded the decrease in PGE2 levels in the media of compound treated A549 cells that have been stimulated with IL-1 beta. Additionally recorded for selected compounds is the effect on A549 cell viability as measured by a CellTiter-Glo assay, and the effect of compounds on A549 cell colony formation.

[4] = tested on: V9m reporter cell line expressing a 15-PGDH luciferase fusion construct; test: 15-PGDH-luciferase fusion gene reporter induction, V9m cell line; type: cell-based; conditions: for percent reporter induction over basal at […]: read-out: V9M-SC3 Reporter activity % ([…]), Table 18, read-out: V9M-SC3 Reporter activity % (7.5 μM)
Source text: as §1, §2, §3, §4

[5] = tested on: Vaco503 reporter cell line expressing a 15-PGDH luciferase fusion construct; test: 15-PGDH-luciferase fusion gene reporter induction, Vaco503 (V503) cell line; type: cell-based
Source text: as §1, §2, §3, §4

[6] = tested on: A549 cells; test: PGE2 levels in medium of IL1-beta stimulated A549 cells; type: cell-based; conditions: for Reduction in levels of PGE2 in the medium, ranking: 15-PGDH activators
[7] = read-out: Enzyme inhibition % ([…]), recombinant 15-PGDH, […] compound, read-out: Enzyme inhibition % (2.5 μM)
[8] = read-out: Enzyme inhibition % ([…]), recombinant 15-PGDH, […] compound, read-out: Enzyme inhibition % (7.5 μM)
[9] = read-out: 1S174T reporter activity ([…]), Table 17, […], read-out: 1S174T reporter activity (7.5 μM)
[10] = read-out: LS174T reporter activity ([…]), Table 17, […], read-out: LS174T reporter activity (2.5 μM)
[11] = read-out: V9M reporter activity ([…]), Table 17, […], % induction over basal level, read-out: V9M reporter activity (2.5 μM)
[12] = read-out: V9M reporter activity ([…]), Table 17, […], read-out: V9M reporter activity (7.5 μM)
[13] = read-out: V503 reporter activity ([…]), Table 17, […], read-out: V503 reporter activity (2.5 μM)
[14] = read-out: V503 reporter activity ([…]), Table 17, […], read-out: V503 reporter activity (7.5 μM)
[15] = read-out: LS174T reporter activity ([…]), […], % increased luciferase activity over basal level, read-out: LS174T reporter activity (2.5 uM)
[16] = read-out: LS174T reporter activity ([…]), […], % increased luciferase activity over basal level, read-out: LS174T reporter activity (7.5 uM)
[17] = read-out: V9M reporter activity ([…]), […], % increased luciferase activity over basal level, 100 = doubling, read-out: V9M reporter activity (2.5 uM)
[18] = read-out: V9M reporter activity ([…]), […], % increased luciferase activity over basal level, read-out: V9M reporter activity (7.5 uM)
[19] = read-out: V503 reporter activity ([…]), […], % increased luciferase activity over basal level, read-out: V503 reporter activity (2.5 uM)
[20] = read-out: V503 reporter activity ([…]), […], % increased luciferase activity over basal level, read-out: V503 reporter activity (7.5 uM)
[21] = read-out: Ls174T-SC1 reporter activity, % ([…]), Table 18, […], read-out: Ls174T-SC1 reporter activity, % (2.5μM)
[22] = read-out: Ls174T-SC1 reporter activity, % ([…]), Table 18, […], read-out: Ls174T-SC1 reporter activity, % (7.5 μM)
[23] = read-out: V9M-SC3 Reporter activity ([…]) (%), Table 18, […], read-out: V9M-SC3 Reporter activity (2.5 μM) (%)
[24] = read-out: V503-3H9-7 reporter activity, % ([…]), Table 18, […], read-out: V503-3H9-7 reporter activity, % (2.5 μM)
[25] = read-out: V503-3H9-7 reporter activity, % ([…]), Table 18, […], read-out: V503-3H9-7 reporter activity, % (7.5 μM)
[26] = read-out: Enzyme inhibition % ([…]), Table 18, […] compound, read-out: Enzyme inhibition % (2.5 μM)
[27] = read-out: Enzyme inhibition % ([…]), Table 18, […] compound, read-out: Enzyme inhibition % (7.5 μM)

Row | Structure (SMILES) | Induction of 15-PGDH-luciferase reporter, in words [1] | inhibition at […] [2, 7] [%] | inhibition at […] [2, 8] [%] | activation at […] [3, 9] [%] | activation at […] [3, 10] [%] | activation at […] [4, 11] [%] | activation at […] [4, 12] [%] | activation at […] [5, 13] [%] | activation at […] [5, 14] [%] | also measured
1 | COc1ccc(OC)c(N(CC(=O)Nc2cc(C)no2)S(=O)(=O)c2ccccc2)c1 [SW203704] | active in inducing the 15-PGDH-luciferase reporter | 4.19 | 7.26 |  |  |  |  |  |  | 
2 | COc1ccc(N(CC(=O)Nc2ccccc2Br)S(=O)(=O)c2ccc(NC(C)=O)cc2)cc1 [compound 771064] |  |  |  | -29.6 | -2.11 | 43.3 | -19.2 | -13.8 | -24.8 | 
3 | COc1ccc(S(=O)(=O)N(CC(=O)N2CCCCCC2)c2cc(OC)ccc2OC)cc1 [SW207998] | activity equal to, or in some assays greater than, SW054384; also recorded: active in inducing the 15-PGDH-luciferase reporter | 8.09 | 14.4 |  |  |  |  |  |  | Inhibition of recombinant 15-PGDH, in words [2]: much less inhibition of enzymatic activity of 15-PGDH; also recorded: lesser inhibitory activity at high concentration; Reduction in levels of PGE2 in the medium, ranking ([6]; 100 nM drug): greatest reduction in levels of PGE2
4 | COc1ccc(OC)c(N(CC(=O)Nc2cccnc2)S(=O)(=O)c2ccc(Br)cc2)c1 [SW203737] | active in inducing 15-PGDH-luciferase reporter activity; also recorded: active in inducing the 15-PGDH-luciferase reporter | 23.8 | 42.5 |  |  |  |  |  |  | Effect on PGE2 levels in medium, in words ([6]; IL1-beta stimulated A549 cells): show activity in lowering PGE2
5 | COc1ccc(S(=O)(=O)N(CC(=O)N2CCOCC2)c2cc(OC)ccc2OC)cc1 [SW207997] | activity equal to, or in some assays greater than, SW054384; also recorded: active in inducing the 15-PGDH-luciferase reporter | -7.08 | -0.86 |  |  |  |  |  |  | Inhibition of recombinant 15-PGDH, in words [2]: much less inhibition of enzymatic activity of 15-PGDH; also recorded: lesser inhibitory activity at high concentration; Reduction in levels of PGE2 in the medium, ranking ([6]; 100 nM drug): greatest reduction in levels of PGE2
6 | COc1ccc(N(CC(=O)Nc2ccccc2Br)S(=O)(=O)c2ccccc2[N+](=O)[O-])c(OC)c1 [compound 1002065] |  |  |  | 15.2 | 9.9 | 7.38 | 18.6 | 38.1 | 52.5 | 
7 | Nc1c(C(=O)O)sc2nc(-c3cccs3)cc(-c3ccccc3)c12 [SW206979, 3-Amino-4-phenyl-6-(thiophen-2-yl)thieno[2,3-b]pyridine-2-carboxylic acid] |  |  |  |  |  |  |  |  |  | activation at […] [3, 15]: 34.3%; activation at […] [3, 16]: 32.8%; activation at […] [4, 17]: -12.6%; activation at […] [4, 18]: -20.6%; activation at […] [5, 19]: 21.7%; activation at […] [5, 20]: 42.9%
8 | CCCC[S+]([O-])c1ncccc1[N+](=O)[O-] (stereo not drawn) [SW208069, 2-(butylsulfinyl)-3-nitropyridine] |  |  |  |  |  |  |  |  |  | activation at […] [3, 15]: 19.5%; activation at […] [3, 16]: 15.1%; activation at […] [4, 17]: -14.5%; activation at […] [4, 18]: 0.23%; activation at […] [5, 19]: 19.5%; activation at […] [5, 20]: 15.1%
9 | COc1ccc(C)cc1N(CC(=O)Nc1cccnc1)S(=O)(=O)c1ccccc1 [526206-05-3] |  |  |  |  |  |  |  |  |  | activation at […] [3, 21]: 68.5%; activation at […] [3, 22]: 146%; percent reporter induction over basal at […] ([4]; […]): 114%; activation at […] [4, 23]: 23.1%; activation at […] [5, 24]: 110%; activation at […] [5, 25]: 198%; inhibition at […] [2, 26]: 42%; inhibition at […] [2, 27]: 70.2%
10 | COc1ccc(N(CC(=O)Nc2cccnc2)S(=O)(=O)c2ccccc2)cc1C [592469-85-7] |  |  |  |  |  |  |  |  |  | activation at […] [3, 21]: 3.77%; activation at […] [3, 22]: 14%; percent reporter induction over basal at […] ([4]; […]): 18.5%; activation at […] [4, 23]: -9.74%; activation at […] [5, 24]: 10.2%; activation at […] [5, 25]: 5.3%; inhibition at […] [2, 26]: 6.23%; inhibition at […] [2, 27]: 17.2%
11 | COc1ccc(OC)c(N(CC(=O)Nc2cccc(Cl)c2)S(=O)(=O)c2ccccc2)c1 [311315-25-0] |  |  |  |  |  |  |  |  |  | activation at […] [3, 21]: 62.6%; activation at […] [3, 22]: 75.8%; inhibition at […] [2, 26]: 18.7%; inhibition at […] [2, 27]: 34.7%
12 | COc1ccc(S(=O)(=O)N(CC(=O)Nc2cccc(N(C)S(C)(=O)=O)c2)c2cc(Cl)ccc2OC)cc1OC [compound 924787] |  |  |  | 13.1 | 4.32 | -1.45 | 18.1 | 21.9 | 48 | 
13 | COc1ccc(S(=O)(=O)N(CC(=O)Nc2ccc(Br)cc2)c2cc(Cl)ccc2OC)cc1OC [compound 771432] |  |  |  | 4.24 | 3.86 | -7.11 | -3.13 | 33.7 | 42.8 | 
14 | COc1ccc(S(=O)(=O)N(CC(=O)N2CCCCC2)c2cc(OC)ccc2OC)cc1 [SW207999] | active in inducing the 15-PGDH-luciferase reporter | -0.86 | 3.34 |  |  |  |  |  |  | Inhibition of recombinant 15-PGDH, in words [2]: lesser inhibitory activity at high concentration
15 | COc1ccc(S(=O)(=O)N(CC(=O)Nc2cccc(Br)c2)c2cc(Cl)ccc2OC)cc1OC [compound 771130] |  |  |  | -0.48 | 8.66 | 8.67 | 5.84 | -10.2 | -3.48 | 
16 | COc1ccc(S(=O)(=O)N(CC(=O)Nc2cccnc2)c2cc(OC)ccc2OC)cc1 [SW202940] | active in inducing 15-PGDH-luciferase reporter activity | 24.3 | 63.3 |  |  |  |  |  |  | 
17 | C[S+]([O-])c1sc2nc(-c3cccs3)cc(-c3ccccc3)c2c1N (stereo not drawn) [SW208079, 2-(methylsulfinyl)-4-phenyl-6-(thiophen-2-yl)thieno[2,3-b]pyridin-3-amine] | marked loss of activity in inducing the cell line reporters |  |  |  |  |  |  |  |  | 
18 | CCCC[S+]([O-])c1sc2nc(-c3nccs3)cc(-c3ccccc3)c2c1N (stereo not drawn) [SW208066, 2-(butylsulfinyl)-4-phenyl-6-(thiazol-2-yl)thieno[2,3-b]pyridin-3-amine] |  |  |  |  |  |  |  |  |  | V9M reporter activity ([…]) ([4]; […], % increased luciferase activity over basal level): 111.63%; V9M reporter activity ([…]) ([4]; […], % increased luciferase activity over basal level, 100 = doubling): 122.72%; PGE2 levels in the medium, ranking ([6]; 100 nM drug, 15-PGDH inhibitors): highest levels of PGE2
19 | COc1ccc(S(=O)(=O)N(CC(=O)Nc2ccccc2Br)c2cc(Cl)ccc2OC)cc1OC [compound 771081] |  |  |  | 15.4 | 5.74 | -14.2 | 7.58 | 31.9 | 51.7 | 
20 | COc1ccc(OC)c(N(CC(=O)Nc2cccnc2)S(=O)(=O)c2ccc(OC)c(OC)c2)c1 [680599-58-0] |  |  |  |  |  |  |  |  |  | percent reporter induction over basal at […] ([4]; […]): -22.5%; inhibition at […] [2, 26]: 31.8%; inhibition at […] [2, 27]: 50.7%

Source: patent US10301320B2, “Compositions and methods of modulating 15-PGDH activity” (CASE WESTERN RESERVE UNIVERSITY, priority 2012, dated 2019)
